Results on one compound are retold here after US20240018480A1, “ENHANCEMENT OF EXTRACELLULAR VESICLE PRODUCTION BY LYSOSOME INHIBITOR” (ExoTop Theragnostics Inc., priority 2022, published 2024).

The test system of test [1] is human MSCs. Description: Intracellular acidification of MSCs, acidic organelles stained by lysotracker red. Type of test: cell-based. The conditions noted are these: MSCs in CDPF with lysosome inhibitor vs CCM and CDPF, FIG. 2A. As for the experimental part: (§1) Mesenchymal stem cells were seeded on the plate at a density of ˜5000 cells/cm^2 and the plate was placed in 5% CO2 humidified incubator. One day after the incubation, the culture media was aspirated to remove non-adherent cells and switched with a fresh media. The plate was incubated again. After further culturing for around 3 to 5 days, the culture media was aspirated and replaced by CDPF and/or lysosome inhibitor medium. The cells were cultured in the CDPF and/or lysosome inhibitor medium for 12, 24, or 48 hours. After the designated period of culturing, the culture media was collected and cell lysis buffer was immediately added to the cells on the plate. The collected media and cell lysate were each independently subjected to detection of the level of CD63 by ELISA and by qPCR, respectively.
Human MSCs were cultured in different media including complete culture medium (CCM), CDPF, and CDPF with lysosome inhibitor. The acidic organelles in live stem cells were stained by lysotracker red. […] Without lysosome inhibitor, the intracellular acidification was not suppressed.

In the next test the test system is human CD63 (hCD63) gene. Briefly: RT-qPCR of hCD63 gene expression in MSCs cultured in different media. Format: cell-based. The note with it: FIG. 2B. As for the experimental part:
as §1
To compare hCD63+ expression in MSCs cultured in various media including CCM, CDPF, and CDPF with lysosome inhibitor, RT-quantitative real-time PCR (RT-qPCR) assays were performed.

Test [2] has as its system human MSCs. Briefly: CD63 ELISA of culture media collected after culture with stem cells (secretion of EVs). Type of test: cell-based. The note with it: FIG. 3A. As for the experimental part:
as §1, with “5000” for “˜5000”
To quantitatively compare CD63+ expression in CM cultured in various media including CCM, CDPF, and CDPF with lysosome inhibitor, enzyme-linked immunosorbent (ELISA) assays were performed.

Test [3] deals with fatty acid synthase (FASN). Briefly: qPCR relative quantification (RQ) of fatty acid synthase (FASN) in MSCs. The note with it: FIG. 3C. Type of test: cell-based, human. (Real-time PCR tracks product formation cycle by cycle.)
Setting [4] is: MSCs in CDPF with lysosome inhibitor, RT-qPCR.

“Also recorded” adds a separate entry of the source.

`CCN(CC)CCCC(C)Nc1ccnc2cc(Cl)ccc12` (stereo not drawn) [lysosome inhibitor, chloroquine]: the “intracellular acidification of human MSCs” value with human MSCs [1] was “suppressed”. For the same compound, the “expression of human CD63 gene in the MSCs (in words)” value in the test with human CD63 (hCD63) gene (CDPF with lysosome inhibitor vs CCM, CDPF, qPCR) was “increased; also recorded: dramatic increase”. Further, in the test on human CD63 (hCD63) gene (setting [4]), the “expression of hCD63+ gene, times higher than MSCs cultured in CCM” value is “about 10 times” and the “expression of hCD63+ gene, times higher than MSCs cultured in CDPF without lysosome inhibitor” value is on record as “about 5 times”. For the same compound, the “secretion of EVs (CD63-positive particles) from stem cells to the cultured media (in words)” value with human MSCs [2] (Ly_Inhibitor+CDPF vs CCM and CDPF, CD63 ELISA) was “stimulated”. For the same compound, in the test with human MSCs [2] (MSCs in CDPF with lysosome inhibitor, CD63 ELISA of media), the “EV production (CD63+ particles), times higher than MSCs cultured in CCM or in CDPF without lysosome inhibitor” value is “about 2.3 times”. Further, in test [3] (MSCs in CCM with lysosome inhibitor, RT-qPCR), the “expression of FASN, times higher than MSCs cultured in CCM” value is on record as “about 25 times”. In addition, in test [3] (setting [4]), the “expression of FASN, times higher than MSCs cultured in CDPF without lysosome inhibitor” value is on record as “about 5 times”. In addition, the “gene expression of FASN (in words)” value in test [3] (treatment with the inhibitor, qPCR RQ) is recorded as “drastically induced”.
